According to patent US9464062B2, “Disubstituted oxazolidin-2-ones 5-hydroxytryptamine receptor 2B activity modulators” (TEMPLE UNIVERSITY—OF THE COMMONWEALTH SYSTEM OF HIGHER …, priority 2012, dated 2016):

Target: 5HT2B receptors (Homo sapiens (Human), UniProt P41595)
Assay: Radiolabel Binding Studies for Serotonin 5HT2B receptors, method 1 ([3H]LSD competition)
Settings: for IC50: [3H]LSD radioligand; for inhibition at 10 µM: single concentration 10 uM, inhibition of [3H]LSD binding, read-out: 5-HT2B % inhib @10 uM
Experimental: A solution of the compound of the disclosure to be tested is prepared as a 1-mg/ml stock in Assay Buffer (50 mM Tris-HCl, 10 mM MgCl2, 1 mM EDTA, pH 7.4) or DMSO according to its solubility. A 1-mg/ml stock of the reference compound 5-hydroxytryptamine (5-HT) is also prepared as a positive control. Eleven dilutions (5× assay concentration) of the compound of the disclosure and 5-HT are prepared in the Assay Buffer by serial dilution to yield final corresponding assay concentrations ranging from […].
A stock concentration of 5 nM [^3H]LSD (lysergic acid diethyl amide) is prepared in Assay Buffer. Aliquots (50 μl) of radioligand are dispensed into the wells of a 96-well plate containing 100 μl of Assay Buffer. Duplicate 50-μl aliquots of the compound of the disclosure test and 5-HT positive control reference compound serial dilutions are added.
Membrane fractions of cells expressing recombinant 5HT2B receptors (50 μL) are dispensed into each well. The membranes are prepared from stably transfected c ell lines expressing 5HT2B receptors cultured on 10-cm plates by harvesting PBS-rinsed monolayers, resuspending and lysing the monolayers in chilled, hypotonic 50 mM Tris-HCl, pH 7.4, centrifuging at 20,000×g, decanting the supernatant and storing at −80° C. The membrane preparations are resuspended in 3 ml of chilled Assay Buffer and homogenized by several passages through a 26 gauge needle before use in the assay.
The 250-μl reactions are incubated at room temperature for 1.5 hours, then harvested by rapid filtration onto 0.3% polyethyleneimine-treated, 96-well filter mats using a 96-well Filtermate harvester. Four rapid 500-μl washes are performed with chilled Assay Buffer to reduce non-specific binding. The filter mats are dried, then scintillant is added to the filters and the radioactivity retained on the filters is counted in a scintillation counter.
Raw data (dpm) representing total radioligand binding (i.e., specific+non-specific binding) are plotted as a function of the logarithm of the molar concentration of the competitor (i.e., test or reference compound). Non-linear regression of the normalized (i.e., percent radioligand binding compared to that observed in the absence of test or reference compound) raw data is performed in […] (GraphPad Software, Inc.) using the built-in three parameter logistic model describing ligand competition binding to radioligand-labeled sites: y=bottom+[(top−bottom)/(1+[…])] where “bottom” is the residual radioligand binding measured in the presence of 10 μM reference compound (i.e., non-specific binding) and “top” is the total radioligand binding observed in the absence of competitor. The log IC50 (i.e., the log of the ligand concentration that reduces radioligand binding by 50%) is thus estimated from the data and used to obtain the Ki by applying the Cheng-Prusoff approximation: Ki=IC50/(1+[ligand]/KD) where “[ligand]” is the assay radioligand concentration and “KD” is the affinity constant of the radioligand for the target receptor.
Compounds of the disclosure are also screened at a single concentration of 10 μM using the same method described for the Radiolabel Binding Studies for Serotonin 5HT2B receptors, method 1 to determine the percent inhibition of [^3H]LSD binding.

Chain of 5HT2B receptors (P41595 whole entry): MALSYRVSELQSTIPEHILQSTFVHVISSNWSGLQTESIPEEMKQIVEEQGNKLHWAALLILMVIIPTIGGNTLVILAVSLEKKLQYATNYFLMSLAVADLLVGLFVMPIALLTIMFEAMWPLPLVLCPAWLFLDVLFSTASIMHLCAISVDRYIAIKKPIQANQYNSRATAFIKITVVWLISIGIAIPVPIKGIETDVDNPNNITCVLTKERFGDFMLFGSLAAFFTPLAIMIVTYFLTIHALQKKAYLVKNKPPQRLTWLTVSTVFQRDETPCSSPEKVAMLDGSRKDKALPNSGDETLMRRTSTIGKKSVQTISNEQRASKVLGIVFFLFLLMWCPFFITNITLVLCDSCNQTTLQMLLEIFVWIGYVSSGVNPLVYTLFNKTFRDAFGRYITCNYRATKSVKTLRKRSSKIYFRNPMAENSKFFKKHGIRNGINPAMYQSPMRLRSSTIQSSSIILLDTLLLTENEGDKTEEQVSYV

## C=CCN1CC(CN2CCN(C(c3ccccc3)c3ccccc3)CC2)OC1=O (stereo not shown) [Entry 1]
  IC50: 126 nM
  inhibition at 10 µM: 91.1%

## CC(C)(C)N1CC(CN2CCN(C(c3ccccc3)c3ccccc3)CC2)OC1=O (stereo not shown) [Entry 6]
  IC50: 1870 nM
  inhibition at 10 µM: 59.3%

## CC(C)N1CC(CN2CCN(C(c3ccccc3)c3ccccc3)CC2)OC1=O (stereo not shown) [Entry 3]
  IC50: 274 nM
  inhibition at 10 µM: 84.9%

## O=C1OC(CN2CCN(C(c3ccccc3)c3ccccc3)CC2)CN1C1CCCC1 (stereo not shown) [Entry 5]
  IC50: 41 nM
  inhibition at 10 µM: 94.1%

## O=C1OC(CN2CCN(C(c3ccccc3)c3ccccc3)CC2)CN1C1CCC1 (stereo not shown) [Entry 4]
  IC50: 190 nM
  inhibition at 10 µM: 87.3%

## O=C1OC(CN2CCN(C(c3ccccc3)c3ccccc3)CC2)CN1C1CC1 (stereo not shown) [Entry 7]
  IC50: 298 nM
  inhibition at 10 µM: 87.6%

## O=C1OC(CN2CCN(C(c3ccccc3)c3ccccc3)CC2)CN1C1CCCCC1 (stereo not shown) [Entry 2]
  inhibition at 10 µM: 91.4%
